In article PMC9030827, “In Vitro Effects of Mitochondria-Targeted Antioxidants in a Small-Cell Carcinoma of the Ovary of Hypercalcemic Type and in Type 1 and Type 2 Endometrial Cancer” (Biomedicines, 2022):

Assays:
Format in all cases: cell-based, human
Ishikawa cells = test: Intracellular ROS/RNS assessment, DCFH-DA probe; settings: 10 μM, 2 h immediately after addition
Protocol: (§1) The assay for the evaluation of the levels of ROS/RNS was based on the work of Bak, et al.. All cell lines were cultured in black 96-well plates at a density of 5 × 10^4 cells/well and allowed to adhere for 24 h. After adherence, the cells were incubated with 2′,7′-dichlorodihydrofluorescein diacetate (DCFH-DA) (25 μM) for 1 h at 37 °C in the dark. The DCFH-DA probe allows the detection of intracellular ROS, more specifically H2O2, HO^● and ROO^●, and RNS, more specifically, ^●NO and ONOO^− [51]. The cells were then treated with 10 μM of either Mito6_TPP, Mito6_picol., or Mito6_isoq. The stress inducer H2O2 (200 μM) was used as the positive control. The fluorescence provided by the probe was measured immediately and every 5 min for 2 h at 37 °C using a BioTek Synergy HTX Multi-Mode Microplate Fluorimeter equipped with BioTek Gen5 Data Collection and Analysis Software (BioTek Instruments, Winooski, VT, USA) (excitation: 485 nm; emission: 530 nm).

Hec50co cells = test: Intracellular ROS/RNS assessment, DCFH-DA probe; settings: 10 μM, 2 h immediately after addition
Protocol: as §1

COV434 cells = test: Intracellular ROS/RNS assessment, DCFH-DA probe; settings: COV434, 10 μM, 2 h immediately after addition
Protocol: as §1

[1] = system: Ishikawa, Hec50co, COV434, and HFF-1 cells; test: Cell viability (MTT and NR assays), statements over all cell lines
Protocol: The Ishikawa, Hec50co, COV434, and HFF-1 cell lines were plated at a density of 5 × 10^4 cells/well in transparent 96-well plates. After 24 h, the cells were treated with Mito6_TPP, Mito6_picol., or Mito6_isoq. (0.01–100 μM) and incubated at 37 °C with 5% CO2 for 24, 48, or 72 h. […] The conditions of the methylthiazolyldiphenyl-tetrazolium bromide (MTT) assay were adapted from the work of Banerjee et al.. Briefly, MTT was added to a final concentration of 0.5 mg/mL, and the cells were incubated for 3 h at 37 °C with 5% CO2. After the 3 h, purple MTT formazan crystals were dissolved by agitation for 15 min in a solution of DMSO/isopropanol (ratio 3:1) and quantified spectrophotometrically at 540 nm. The neutral red (NR) assay conditions were based on the work developed by Repetto et al.. Briefly, after the incubation time, cells were incubated with NR at 40 μg/mL in an FBS-free cell medium for 3 h. The cells were then incubated with a solution of 50% ethanol (96% v/v), 49% deionized water, and 1% glacial acetic acid, with shaking for 15 min. The NR extracted from the cells was measured at 540 nm. […] For all assays, the absorbance was read using a BioTek Synergy HTX Multi-Mode Microplate Reader equipped with BioTek Gen5 Data Collection and Analysis Software (BioTek Instruments, Winooski, VT, USA).

SMILES | Intracellular ROS levels vs untreated cells (Ishikawa cells) | Intracellular ROS levels vs untreated cells (Hec50co cells) | Intracellular ROS levels vs untreated cells (COV434 cells) | Lowest concentration inducing a significant decrease in cell viability [1] [µM]
O=C(/C=C/c1ccc(O)c(O)c1)NCCCCCCCCCC[P+](c1ccccc1)(c1ccccc1)c1ccccc1 [Mito6_TPP] | faster and more accentuated decrease in ROS levels | faster and more accentuated decrease in ROS levels | faster and more accentuated decrease in ROS levels | 1
Cc1cc[n+](CCCCCCCCCCNC(=O)/C=C/c2ccc(O)c(O)c2)cc1 [Mito6_picol.] | – | – | no effects | –
